This is an account of results in PubChem BioAssay AID212 (DTP/NCI, 2004).

The test system of the assay is BDF1 mice, colon carcinoma 38 sc, T/C %. Briefly: NCI In Vivo Anticancer Drug Screen. Data for tumor model Colon Carcinoma 38 (subcutaneous) in B6D2F1 (BDF1) mice. In outline: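 Ratio of survival or tumor size, compound-treated animals relative to vehicle controls, in tumor-bearing mice.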
The mark [1] stands for this setting: endpoint: median tumor weight (est.), dose: 12.5 mg/kg/injection, schedule: Q07DX002 (ip), vehicle: saline, higher = larger tumour.
The mark [2] stands for this setting: endpoint: median tumor weight (est.), dose: 200.0 mg/kg/injection, schedule: Q07DX002 (ip), vehicle: saline with Tween-80, higher = larger tumour.

Values joined by “and” are separate entries in the source; they are usually repeats but may differ in a detail not shown here. Equal entries are not always repeated. Inconclusive results are not listed.

For the molecule `CC(O)CCC(=O)c1ccoc1` (stereo not given), the T/C was 150 % of control (endpoint: median tumor weight (est.), dose: 0.63 mg/kg/injection, schedule: Q07DX002 (ip), vehicle: saline, higher = larger tumour); 42 % of control (endpoint: median tumor weight (est.), dose: 1.25 mg/kg/injection, schedule: Q03HX006 (ip), vehicle: saline, higher = larger tumour); 64 % of control (endpoint: median tumor weight (est.), dose: 2.5 mg/kg/injection, schedule: Q03HX006 (ip), vehicle: saline, higher = larger tumour); 166 % of control (endpoint: median tumor weight (est.), dose: 2.5 mg/kg/injection, schedule: Q07DX002 (ip), vehicle: saline, higher = larger tumour); 58 % of control (endpoint: median tumor weight (est.), dose: 5.0 mg/kg/injection, schedule: Q03HX006 (ip), vehicle: saline, higher = larger tumour); 150 % of control (endpoint: median tumor weight (est.), dose: 5.0 mg/kg/injection, schedule: Q07DX002 (ip), vehicle: saline, higher = larger tumour). Also, the T/C (endpoint: median tumor weight (est.), dose: 10.0 mg/kg/injection, schedule: Q07DX002 (ip), vehicle: saline, higher = larger tumour) was 185 % of control.

Consider `COc1cccc2c1C(=O)c1c(O)c3c(c(O)c1C2=O)C[C@@](O)(C(C)=O)C[C@@H]3OC1CC(N(Cc2ccccc2)Cc2ccccc2)C(O)C(C)O1` (stereo not given in full), for which the T/C runs as follows: (endpoint: median survival time, dose: 43.0 mg/kg/injection, schedule: Q07DX003 (sc), vehicle: saline with Tween-80, higher = longer survival) 152 % of control; (endpoint: median survival time, dose: 69.0 mg/kg/injection, schedule: Q07DX003 (sc), vehicle: saline with Tween-80, higher = longer survival) 170 % of control; (endpoint: median survival time, dose: 112.0 mg/kg/injection, schedule: Q07DX003 (sc), vehicle: saline with Tween-80, higher = longer survival) 220 % of control; (endpoint: median survival time, dose: 180.0 mg/kg/injection, schedule: Q07DX003 (sc), vehicle: saline with Tween-80, higher = longer survival) 254 % of control; (endpoint: median tumor weight (est.), dose: 6.75 mg/kg/injection, schedule: Q07DX002 (ip), vehicle: distilled water + Tween-80, higher = larger tumour) 108 % of control; (endpoint: median tumor weight (est.), dose: 13.5 mg/kg/injection, schedule: Q07DX002 (ip), vehicle: distilled water + Tween-80, higher = larger tumour) 57 % of control. Moreover, the T/C is 13 % of control (endpoint: median tumor weight (est.), dose: 27.0 mg/kg/injection, schedule: Q07DX002 (ip), vehicle: distilled water + Tween-80, higher = larger tumour); 39 % of control and 50 % of control (endpoint: median tumor weight (est.), dose: 27.0 mg/kg/injection, schedule: Q07DX002 (ip), vehicle: saline with Tween-80, higher = larger tumour); 8 % of control (endpoint: median tumor weight (est.), dose: 54.0 mg/kg/injection, schedule: Q07DX002 (ip), vehicle: saline with Tween-80, higher = larger tumour); 3 % of control (endpoint: median tumor weight (est.), dose: 108.0 mg/kg/injection, schedule: Q07DX002 (ip), vehicle: saline with Tween-80, higher = larger tumour).

Regarding `Cc1c2ccc3ccccc3c2c[n+]2ccccc12`, the T/C was 111 % of control and 87 % of control (endpoint: median tumor weight (est.), dose: 5.0 mg/kg/injection, schedule: Q07DX002 (ip), vehicle: Klucel (hydroxypropylcellulose) (HPC), higher = larger tumour); 77 % of control (endpoint: median tumor weight (est.), dose: 10.0 mg/kg/injection, schedule: Q07DX002 (ip), vehicle: Klucel (hydroxypropylcellulose) (HPC), higher = larger tumour); 89 % of control (endpoint: median tumor weight (est.), dose: 40.0 mg/kg/injection, schedule: Q07DX002 (ip), vehicle: Klucel (hydroxypropylcellulose) (HPC), higher = larger tumour).

Regarding `C1OC1CN1CCN(CC2CO2)CC1` (stereo not given), the T/C by setting is: (endpoint: median tumor weight (est.), dose: 3.12 mg/kg/injection, schedule: Q07DX002 (ip), vehicle: saline, higher = larger tumour) 98 % of control; (endpoint: median tumor weight (est.), dose: 3.12 mg/kg/injection, schedule: Q07DX003 (ip), vehicle: saline, higher = larger tumour) 1 % of control; (endpoint: median tumor weight (est.), dose: 6.25 mg/kg/injection, schedule: Q07DX003 (ip), vehicle: saline, higher = larger tumour) 23 % of control; under setting [1], 77 % of control; (endpoint: median tumor weight (est.), dose: 12.5 mg/kg/injection, schedule: Q07DX003 (ip), vehicle: saline, higher = larger tumour) 9 % of control; (endpoint: median tumor weight (est.), dose: 25.0 mg/kg/injection, schedule: Q07DX002 (ip), vehicle: saline, higher = larger tumour) 100 % of control. Moreover, the T/C reads like this: (endpoint: median tumor weight (est.), dose: 25.0 mg/kg/injection, schedule: Q07DX003 (ip), vehicle: saline, higher = larger tumour) 20 % of control; (endpoint: median tumor weight (est.), dose: 50.0 mg/kg/injection, schedule: Q07DX002 (ip), vehicle: saline, higher = larger tumour) 77 % of control; (endpoint: median tumor weight (est.), dose: 50.0 mg/kg/injection, schedule: Q07DX003 (ip), vehicle: saline, higher = larger tumour) 4 % of control.

For `CN=S(=O)(OCCCCCOS(=O)(=NC)c1ccc(C)cc1)c1ccc(C)cc1` (stereo not given), the T/C is, setting by setting: (endpoint: median tumor weight (est.), dose: 50.0 mg/kg/injection, schedule: Q07DX002 (ip), vehicle: saline with Tween-80, higher = larger tumour) 71 % of control and 94 % of control; (endpoint: median tumor weight (est.), dose: 100.0 mg/kg/injection, schedule: Q07DX002 (ip), vehicle: saline with Tween-80, higher = larger tumour) 65 % of control and 89 % of control; under setting [2], 96 % of control; (endpoint: median tumor weight (est.), dose: 400.0 mg/kg/injection, schedule: Q07DX002 (ip), vehicle: saline with Tween-80, higher = larger tumour) 61 % of control.

Regarding `CCN(CC)CCCNc1nccc2c(C)c3[nH]c4ccncc4c3cc12`, the T/C (endpoint: median tumor weight (est.), dose: 0.75 mg/kg/injection, schedule: Q07DX002 (ip), vehicle: acid diluted with saline, higher = larger tumour) is 76 % of control; the T/C (endpoint: median tumor weight (est.), dose: 0.75 mg/kg/injection, schedule: Q07DX002 (ip), vehicle: other, higher = larger tumour) was 120 % of control; the T/C (endpoint: median tumor weight (est.), dose: 1.25 mg/kg/injection, schedule: Q07DX002 (ip), vehicle: other, higher = larger tumour) is 106 % of control; the T/C (endpoint: median tumor weight (est.), dose: 1.5 mg/kg/injection, schedule: Q07DX002 (ip), vehicle: acid diluted with saline, higher = larger tumour) is 100 % of control; the T/C (endpoint: median tumor weight (est.), dose: 1.5 mg/kg/injection, schedule: Q07DX002 (ip), vehicle: other, higher = larger tumour) was 108 % of control; the T/C (endpoint: median tumor weight (est.), dose: 3.0 mg/kg/injection, schedule: Q07DX002 (ip), vehicle: acid diluted with saline, higher = larger tumour) is 46 % of control. Moreover, the T/C (endpoint: median tumor weight (est.), dose: 3.0 mg/kg/injection, schedule: Q07DX002 (ip), vehicle: other, higher = larger tumour) is 123 % of control; the T/C (endpoint: median tumor weight (est.), dose: 6.0 mg/kg/injection, schedule: Q07DX002 (ip), vehicle: acid diluted with saline, higher = larger tumour) is 69 % of control; the T/C (endpoint: median tumor weight (est.), dose: 6.0 mg/kg/injection, schedule: Q07DX002 (ip), vehicle: other, higher = larger tumour) was 66 % of control; the T/C (endpoint: median tumor weight (est.), dose: 12.0 mg/kg/injection, schedule: Q07DX002 (ip), vehicle: acid diluted with saline, higher = larger tumour) is 51 % of control; the T/C (endpoint: median tumor weight (est.), dose: 12.0 mg/kg/injection, schedule: Q07DX002 (ip), vehicle: other, higher = larger tumour) was 26 % of control; the T/C (endpoint: median tumor weight (est.), dose: 20.0 mg/kg/injection, schedule: Q07DX002 (ip), vehicle: other, higher = larger tumour) is 41 % of control.

For `Nc1nc(-c2ccccc2)c(Br)c(=O)[nH]1`, the T/C by setting is: under setting [2], 105 % of control; (endpoint: median tumor weight (est.), dose: 1600.0 mg/kg/injection, schedule: Q07DX002 (ip), vehicle: saline with Tween-80, higher = larger tumour) 36 % of control and 43 % of control.

Take `C=CC(=O)NCNC(=O)C=C`: the T/C runs as follows: under setting [1], 164 % of control; (endpoint: median tumor weight (est.), dose: 100.0 mg/kg/injection, schedule: Q07DX002 (ip), vehicle: saline, higher = larger tumour) 100 % of control; (endpoint: median tumor weight (est.), dose: 200.0 mg/kg/injection, schedule: Q07DX002 (ip), vehicle: saline, higher = larger tumour) 89 % of control and 97 % of control; (endpoint: median tumor weight (est.), dose: 400.0 mg/kg/injection, schedule: Q07DX002 (ip), vehicle: saline, higher = larger tumour) 35 % of control.

As for `C[C@@]1(CO)[C@H](O)CC[C@@]2(C)[C@H]1CC[C@H]1C[C@@H]3C[C@@]12CC[C@@]3(O)COC(=O)CN`, the T/C was 155 % of control (endpoint: median tumor weight (est.), dose: 25.0 micrograms/kg/injection, schedule: Q07DX002 (ip), vehicle: saline + alcohol, higher = larger tumour) and 107 % of control (endpoint: median tumor weight (est.), dose: 100.0 micrograms/kg/injection, schedule: Q07DX002 (ip), vehicle: saline + alcohol, higher = larger tumour).

On to `NC(=O)Oc1cccc(OC(N)=O)c1`, for which the T/C is, setting by setting: (endpoint: median tumor weight (est.), dose: 25.0 mg/kg/injection, schedule: Q07DX003 (ip), vehicle: other, higher = larger tumour) 63 % of control; (endpoint: median tumor weight (est.), dose: 50.0 mg/kg/injection, schedule: Q07DX003 (ip), vehicle: other, higher = larger tumour) 103 % of control; (endpoint: median tumor weight (est.), dose: 100.0 mg/kg/injection, schedule: Q07DX003 (ip), vehicle: other, higher = larger tumour) 51 % of control; (endpoint: median tumor weight (est.), dose: 200.0 mg/kg/injection, schedule: Q07DX003 (ip), vehicle: other, higher = larger tumour) 68 % of control; (endpoint: median tumor weight (est.), dose: 400.0 mg/kg/injection, schedule: Q07DX003 (ip), vehicle: other, higher = larger tumour) 75 % of control.

As for `NC(Cc1ccc(N(CCCl)CCCl)cc1)C(=O)O` (stereo not given), the T/C was 71 % of control (endpoint: median tumor weight (est.), dose: 1.0 mg/kg/injection, schedule: Q07DX002 (ip), vehicle: Klucel (hydroxypropylcellulose) (HPC), higher = larger tumour); 84 % of control (endpoint: median tumor weight (est.), dose: 1.0 mg/kg/injection, schedule: Q07DX002 (ip), vehicle: water, higher = larger tumour); 97 % of control (endpoint: median tumor weight (est.), dose: 2.0 mg/kg/injection, schedule: Q07DX002 (ip), vehicle: water, higher = larger tumour); 59 % of control (endpoint: median tumor weight (est.), dose: 4.0 mg/kg/injection, schedule: Q07DX002 (ip), vehicle: water, higher = larger tumour); 47 % of control and 51 % of control and 53 % of control (endpoint: median tumor weight (est.), dose: 8.0 mg/kg/injection, schedule: Q07DX002 (ip), vehicle: Klucel (hydroxypropylcellulose) (HPC), higher = larger tumour); 37 % of control (endpoint: median tumor weight (est.), dose: 8.0 mg/kg/injection, schedule: Q07DX002 (ip), vehicle: water, higher = larger tumour). Besides, the T/C (endpoint: median tumor weight (est.), dose: 16.0 mg/kg/injection, schedule: Q07DX002 (ip), vehicle: Klucel (hydroxypropylcellulose) (HPC), higher = larger tumour) is 9 % of control and 14 % of control.
